Experimental data from patent publication US9149539B1, “Crystalline naloxol-PEG conjugate” (priority 2010, dated 2015).

Assay: Moisture uptake by dynamic vapor sorption (DVS)
Format: physicochemical

## mPEG7-O-naloxol phosphate salt
desorption
  Hysteresis between adsorption and desorption (DVS): no hysteresis
Whole isotherm
  Moisture uptake, DVS isotherm curve: continuous (exponential) moisture uptake from the start
